Test results taken from ChEMBL document CHEMBL1154793, “The lecanindoles, nonsteroidal progestins from the terrestrial fungus Verticillium lecanii 6144” (J Nat Prod, 2009).

Columns and labels:
Progesterone receptor = target: T1, Progesterone receptor (Homo sapiens, UniProt P06401); assay: Activation of progesterone receptor in human T47D cells at 1 uM after 20 hrs by PRE-tagged luciferase reporter gene assay; format: cell-based
T1 sequence (P06401 whole entry): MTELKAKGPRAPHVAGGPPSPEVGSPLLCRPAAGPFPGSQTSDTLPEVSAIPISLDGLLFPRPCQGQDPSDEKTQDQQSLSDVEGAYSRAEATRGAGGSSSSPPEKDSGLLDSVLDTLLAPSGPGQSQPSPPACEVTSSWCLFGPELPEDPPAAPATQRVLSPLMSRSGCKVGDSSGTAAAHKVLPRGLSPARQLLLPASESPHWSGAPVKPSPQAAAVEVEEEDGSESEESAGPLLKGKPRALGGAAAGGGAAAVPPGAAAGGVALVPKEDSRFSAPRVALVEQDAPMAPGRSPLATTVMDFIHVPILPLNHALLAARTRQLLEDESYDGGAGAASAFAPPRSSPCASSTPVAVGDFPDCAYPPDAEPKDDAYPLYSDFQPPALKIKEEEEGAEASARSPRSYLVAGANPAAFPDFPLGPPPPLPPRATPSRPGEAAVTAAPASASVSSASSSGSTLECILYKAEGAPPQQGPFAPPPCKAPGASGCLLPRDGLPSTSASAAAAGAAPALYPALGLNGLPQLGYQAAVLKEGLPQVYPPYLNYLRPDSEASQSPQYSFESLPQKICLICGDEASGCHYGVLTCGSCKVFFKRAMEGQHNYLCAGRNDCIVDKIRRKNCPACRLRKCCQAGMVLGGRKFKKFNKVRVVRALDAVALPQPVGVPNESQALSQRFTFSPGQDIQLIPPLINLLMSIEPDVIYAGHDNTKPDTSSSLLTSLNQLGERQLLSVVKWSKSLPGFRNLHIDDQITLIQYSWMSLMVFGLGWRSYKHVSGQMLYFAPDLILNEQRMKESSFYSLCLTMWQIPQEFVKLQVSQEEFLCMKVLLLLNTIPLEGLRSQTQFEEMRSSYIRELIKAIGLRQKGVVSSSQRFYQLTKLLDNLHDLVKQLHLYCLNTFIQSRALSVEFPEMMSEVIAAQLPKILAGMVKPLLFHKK

[1] = target: T2, Progesterone receptor (Homo sapiens) (UniProt P06401); assay: Activation of progesterone receptor in human T47D cells after 20 hrs by PRE-tagged luciferase reporter gene assay relative to control; format: cell-based
T2 sequence (whole entry): T1 sequence (P06401 whole entry)

SMILES | EC50 (Progesterone receptor) | Efficacy [1] [%]
CC1(C)[C@@H](O)CC[C@]2(C)[C@@]3(C)c4[nH]c5ccccc5c4C[C@@H]3CC[C@@]12O | Not Active | 
CC1(C)C(=O)C=C[C@]2(C)[C@@]3(C)c4[nH]c5ccccc5c4C[C@@H]3CC[C@@]12O |  | < 1
CO[C@H]1[C@H](O)[C@@H](O)[C@H](Oc2ccc3c4c([nH]c3c2)[C@@]2(C)[C@@H](CC[C@H]3C(C)(C)C(=O)C=C[C@@]32C)C4)O[C@@H]1CO |  | < 1
